From patent US20220409727A1, “Metal Complexes Bearing Bisstyryl-Bipyridine Ligand and Their Use as Photosensitizer Agent in One and Two-Photon Photodynamic Therapy” (Paris Sciences et Lettres, priority 2019, published 2022)
Where two headings read alike, the source gives them in different places.

How the values were obtained:
[1] = test system: human cervical carcinoma (HeLa) cells; assay: (Photo-)cytotoxicity on 2D cell monolayers, resazurin assay, HeLa; assay type: cell-based; conditions: for PI (480 nm): dark vs 480 nm (10 min, 3.1 J/cm^2)
Excerpt: Before an experiment, the cells were passaged three times.

[2] = test system: non-cancerous retinal pigment epithelium (RPE-1) cells; assay: (Photo-)cytotoxicity on 2D cell monolayers, resazurin assay, RPE-1; conditions: for PI (480 nm): RPE-1, dark vs 480 nm (10 min, 3.1 J/cm^2);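 on all read-outs here: cells exposed to compound 4 h, medium exchanged, then irradiated or kept dark, 44 h further growth, viability by resorufin fluorescence (ex 540 nm, em 590 nm)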
HeLa MCTS = assay: (Photo-)cytotoxicity on 3D multicellular tumor spheroids (ATP, CellTiter-Glo 3D); assay type: cell-based, human; conditions: for IC50: Homo sapiens
Protocol: autoclave. The hot emulsion was transferred into wells (50 μL per well) of a 96 cell culture well plate. The plates were exposed for 3 h to UV irradiation to ensure the sterility and allow the agarose solution to cool down. After this time, the agarose was overlayed with a HeLa cell suspension at a density of 3000 cells per well in 150 μL of media. The MCTS were cultivated and maintained at 37° C. in a cell culture incubator at 37° C. with 5% CO2 atmosphere. The culture media was replaced every two days. Within two-three days MCTs were formed from the cell suspension. The formation as well as integrity, diameter and volume of the MCTs was monitored by an Axio Observer Z1 (Carl Zeiss) phase contrast microscope. The volume was calculated using the following formula: V=4/3πr^3. The luminescence images along the z-axis were captured by a one-(λex=458 nm, λem=600-750 nm) or two-photon (λex=800 nm, λem=600-750 nm) excitation in the z-stack mode with a an LSM 880 (Carl Zeiss) laser scanning confocal microscope equipped with Argon and a Coherent Chameleon 2-Photon laser and a GaAsP detector.
The cytotoxicity of the compounds in 3D multicellular tumor spheroids (MCTS) was assessed by measurement of the ATP concentration. MCTS were treated with increasing concentrations of the compound (2% DMSO, v %) by replacing 50% of the media with drug supplemented media and incubation for 12 h. After this time, the MCTS were divided in three identical groups. The first group was strictly kept in the dark. The second group was exposed to a one-photon irradiation (500 nm, 10 J/cm^2) using a LED and the third group was exposed to a two-photon irradiation (800 nm, 10 J/cm^2) with a section interval of 5 μm using a LSM 880 (Carl Zeiss, Germany) laser scanning confocal microscope equipped with a Coherent Chameleon 2-Photon laser. After the irradiation, all groups were incubated additional 48 h. The ATP concertation was measured using a CellTiter-Glo 3D Cell Viability kit (Promega) by measuring the generated chemiluminescence with an infinite M200 PRO (Tecan) plate reader.

[3] = test system: mouse colon carcinoma (CT-26) cells
[4] = test system: human glioblastoma astrocytoma (U373) cells
[5] = test system: human glioblastoma astrocytoma (U373) cells; assay: (Photo-)cytotoxicity on 2D cell monolayers, resazurin assay, U373; conditions: for IC50: Homo sapiens, U373 MG
[6] = test system: mouse colon carcinoma (CT-26) cells; assay: (Photo-)cytotoxicity on 2D cell monolayers, resazurin assay, CT-26; conditions: for IC50: Mus musculus
[7] = dark, 4 h incubation, compounds 1-3 as chloride salts, read-out: IC50 dark
[8] = read-out: IC50 480 nm (10 min, 3.1 J/cm^2), irradiation 480 nm (10 min, 3.1 J/cm^2), compounds 1-3 as chloride salts

Which “PI (480 nm)” value [1] does the source give for COc1cccc(/C=C/c2ccnc(-c3cc(/C=C/c4cccc(OC)c4)ccn3)c2)c1.F[P-](F)(F)(F)(F)F.F[P-](F)(F)(F)(F)F.[Ru+2].c1ccc(-c2ccccn2)nc1.c1ccc(-c2ccccn2)nc1 [Compound 12, [Ru(bpy)2((E,E′)-4,4′-Bis[m-methoxystyryl]-2,2′-bipyridine)][PF6]2] here?
The value was greater than 167.

What about the IC50 [1, 7] of the same compound?
The IC50 was greater than 100000 nM.

And the IC50 [1, 8]?
Its IC50 is 600 ± 300 nM.

And the “PI (480 nm)” value [2]?
Its value is greater than 63.

COc1ccccc1C=Cc1ccnc(-c2cc(C=Cc3ccccc3OC)ccn2)c1.F[P-](F)(F)(F)(F)F.F[P-](F)(F)(F)(F)F.[Ru+2].c1ccc(-c2ccccn2)nc1.c1ccc(-c2ccccn2)nc1 [Compound 13, [Ru(bpy)2((E,E′)-4,4′-Bis[o-methoxystyryl]-2,2′-bipyridine)][PF6]2] was tested. Which “PI (480 nm)” value [1] did it give?
Its value is greater than 124.

And the IC50 [1, 7]?
The IC50 was 62000 ± 10000 nM.

What about the IC50 [1, 8] of the same compound?
The IC50 was 500 ± 100 nM.

What about the “PI (480 nm)” value [2] of the same compound?
The value was greater than 66.

F[P-](F)(F)(F)(F)F.F[P-](F)(F)(F)(F)F.Fc1ccc(C=Cc2ccnc(-c3cc(C=Cc4ccc(F)cc4)ccn3)c2)cc1.[Ru+2].c1ccc(-c2ccccn2)nc1.c1ccc(-c2ccccn2)nc1 [Compound 14, [Ru(bpy)2((E,E′)-4,4′-Bis[p-fluorostyryl]-2,2′-bipyridine)][PF6]2] was tested. Which “PI (480 nm)” value [1] did it give?
The value was greater than 125.

What about the IC50 [1, 7] of the same compound?
The IC50 was greater than 100000 nM.

And the IC50 [1, 8]?
The IC50 was 800 ± 100 nM.

What about the “PI (480 nm)” value [2] of the same compound?
The value was greater than 68.

Which “PI (480 nm)” value [1] does the source give for F[P-](F)(F)(F)(F)F.F[P-](F)(F)(F)(F)F.Oc1ccc(/C=C/c2ccnc(-c3cc(/C=C/c4ccc(O)cc4)ccn3)c2)cc1.[Ru+2].c1ccc(-c2ccccn2)nc1.c1ccc(-c2ccccn2)nc1 [Compound 15, [Ru(bpy)2((E,E′)-4,4′-Bis[p-hydroxystyryl]-2,2′-bipyridine)][PF6]2] here?
Its value is greater than 100.

What about the IC50 [1, 7] of the same compound?
Its IC50 is greater than 100000 nM.

And the IC50 [1, 8]?
Its IC50 is 1000 ± 300 nM.

What about the “PI (480 nm)” value [2] of the same compound?
Its value is greater than 9.

How did the “PI (480 nm)” value [1] turn out when COc1ccc(/C=C/c2ccnc(-c3cc(/C=C/c4ccc(OC)cc4)ccn3)c2)cc1.F[P-](F)(F)(F)(F)F.F[P-](F)(F)(F)(F)F.[Os+2].c1ccc(-c2ccccn2)nc1.c1ccc(-c2ccccn2)nc1 [Compound 16, [Os(bpy)2((E,E′)-4,4′-Bis[p-methoxystyryl]-2,2′-bipyridine)][PF6]2] was run?
The value was greater than 4.

What about the IC50 [1, 7] of the same compound?
Its IC50 is greater than 100000 nM.

What about the IC50 [1, 8] of the same compound?
Its IC50 is 27000 ± 6000 nM.

And the “PI (480 nm)” value [2]?
Its value is greater than 3.

With COc1ccc(/C(C)=C/c2ccnc(-c3cc(/C=C(\C)c4ccc(OC)cc4)ccn3)c2)cc1.F[P-](F)(F)(F)(F)F.F[P-](F)(F)(F)(F)F.[Ru+2].c1ccc(-c2ccccn2)nc1.c1ccc(-c2ccccn2)nc1 [Compound 18] as the compound, how does the “PI (480 nm)” value [1] read?
Its value is greater than 6.

What about the IC50 [1, 7] of the same compound?
The IC50 was greater than 100000 nM.

And the IC50 [1, 8]?
Its IC50 is 16700 ± 700 nM.

And the “PI (480 nm)” value [2]?
Its value is greater than 3.

With COc1ccc(/C=C/c2ccnc(-c3cc(/C=C/c4ccc(OC)cc4)ccn3)c2)cc1.F[P-](F)(F)(F)(F)F.F[P-](F)(F)(F)(F)F.[Ru+2].c1cnc(-c2cnccn2)cn1.c1cnc(-c2cnccn2)cn1 [Compound 19, [Ru(bpz)2((E,E′)-4,4′-Bis[p-methoxystyryl]-2,2′-bipyridine)][PF6]2] as the compound, how does the “PI (480 nm)” value [1] read?
The value was greater than 2.

And the IC50 [1, 7]?
Its IC50 is greater than 100000 nM.

And the IC50 [1, 8]?
Its IC50 is 59000 ± 8000 nM.

For C1=Cc2nc1c(-c1ccccc1)c1ccc([nH]1)c(-c1ccccc1)c1nc(c(-c3ccccc3)c3ccc([nH]3)c2-c2ccccc2)C=C1 [Compound H2TPP, tetraphenylporphyrin, reference compound], which IC50 (HeLa MCTS; dark, 12 h incubation, read-out: IC50 dark) is on record?
The IC50 was greater than 100000 nM.

What about the IC50 (HeLa MCTS; light or radiation study, 1-Photon irradiation (500 nm, 10 J/cm^2), read-out: IC50 1-Photon irradiation (500 nm, 10 J/cm^2)) of the same compound?
The IC50 was greater than 100000 nM.

What about the IC50 (HeLa MCTS; light or radiation study, 2-Photon irradiation (800 nm, 10 J/cm^2, section interval of 5 μm), read-out: IC50 2-Photon irradiation (800 nm, 10 J/cm^2)) of the same compound?
The IC50 was greater than 100000 nM.

And the “PI (2-Photon)” value (HeLa MCTS; dark vs 2-Photon irradiation (800 nm, 10 J/cm^2))?
The value was greater than 100.

How did the IC50 ([1]; Homo sapiens, dark, 4 h incubation, compounds 1-3 as chloride salts, read-out: IC50 dark) turn out when C=CC1=C(C)c2cc3[nH]c(cc4nc(cc5[nH]c(cc1n2)c(C)c5CCC(=O)O)C(CCC(=O)O)=C4C)c(C)c3C=C [PpIX, Protoporphyrin IX, reference compound] was run?
Its IC50 is greater than 100000 nM.

What about the IC50 ([1]; Homo sapiens, light or radiation study, 10 min, read-out: IC50 480 nm (10 min), irradiation 480 nm (10 min, 3.1 J/cm^2), compounds 1-3 as chloride salts) of the same compound?
The IC50 was 2500 ± 100 nM.

And the IC50 ([1]; Homo sapiens, light or radiation study, 40 min, read-out: IC50 540 nm (40 min), irradiation 540 nm (40 min, 9.5 J/cm^2), compounds 1-3 as chloride salts)?
The IC50 was 2100 ± 300 nM.

What about the “PI (480 nm)” value [1] of the same compound?
The value was greater than 40.0.

And the “PI (540 nm)” value ([1]; dark vs 540 nm (40 min, 9.5 J/cm^2))?
The value was greater than 47.6.

And the IC50 [3]?
Its IC50 is 400 ± 200 nM.

And the IC50 [4]?
Its IC50 is 1200 ± 300 nM.

What about the IC50 ([5]; 4 h, read-out: IC50 dark) of the same compound?
The IC50 was 10100 ± 700 nM.

And the IC50 ([5]; light or radiation study, 10 min, read-out: IC50 480 nm (10 min, 3.1 J/cm^2))?
Its IC50 is 1300 ± 200 nM.

What about the “PI (480 nm)” value ([5]; U373, dark vs 480 nm (10 min, 3.1 J/cm^2)) of the same compound?
The value was 7.8.

And the “PI (540 nm)” value ([5]; U373, dark vs 540 nm (40 min, 9.5 J/cm^2))?
The value was 8.4.

And the “PI (480 nm)” value [2]?
Its value is greater than 26.3.

And the “PI (540 nm)” value ([2]; RPE-1, dark vs 540 nm (40 min, 9.5 J/cm^2))?
Its value is greater than 30.3.

What about the “PI (480 nm)” value ([6]; CT-26, dark vs 480 nm (10 min, 3.1 J/cm^2)) of the same compound?
Its value is 7.0.

What about the “PI (540 nm)” value ([6]; CT-26, dark vs 540 nm (40 min, 9.5 J/cm^2)) of the same compound?
Its value is 5.6.

What about the IC50 ([6]; CT26, 4 h, read-out: IC50 dark) of the same compound?
The IC50 was 2800 ± 500 nM.

What about the IC50 ([6]; CT26, light or radiation study, 40 min, read-out: IC50 540 nm (40 min, 9.5 J/cm^2)) of the same compound?
Its IC50 is 500 ± 200 nM.

Which results are given for “[Ru(bpy)2((E,E′)-4,4′-Bis[p-aminostyryl]-2,2′-bipyridine)][PF6]2 [Compound 17]”?
PI (480 nm) [1]: >71; IC50 [1, 7]: > 100000 nM; IC50 [1, 8]: 1400 ± 100 nM; PI (480 nm) [2]: >13
